Assay results as given in EPA's ToxRefDB 2.

Key:
rat [1] = conditions: Combined chronic toxicity/carcinogenicity, fischer, Oral, Feed, dose end: 2 year, group: systemic
rat [2] = conditions: Subchronic oral toxicity in rodents, fischer, Feed, dose end: 13 week
mouse [3] = conditions: Subchronic oral toxicity in rodents, b6c3f1, Feed, dose end: 13 week, group: systemic
rat [4] = conditions: Multigenerational reproductive toxicity study, sprague dawley, Oral, Gavage/Intubation, dose end: 2 generation
rat [5] = conditions: Multigenerational reproductive toxicity study, other, Oral, Gavage/Intubation, dose end: 2 generation
mouse [6] = conditions: Carcinogenicity, b6c3f1, Oral, Feed, dose end: 2 year, group: systemic
rat [7] = conditions: Developmental neurotoxicity study, sprague dawley, Oral, Gavage/Intubation, dose end: 80 PND, group: cannot be grouped
rat [8] = conditions: Chronic toxicity; fischer; Oral; Feed; dose end: 130 week; group: systemic; systemic / pathology microscopic / liver / hypertrophy + systemic / pathology microscopic / liver / necrosis
mouse [9] = conditions: Chronic toxicity, [Not Reported], Oral, Feed, dose end: 104 week, group: systemic
rat [10] = conditions: Prenatal developmental toxicity study, other, Oral, Gavage/Intubation, dose end: 15 GD
rat [11] = conditions: Multigenerational reproductive toxicity study, wistar, Oral, Feed, dose end: 2 generation
rat [12] = conditions: Combined chronic toxicity/carcinogenicity, wistar, Oral, Feed, dose end: 24 month, group: systemic
rabbit = conditions: Prenatal developmental toxicity study, chinchilla, Oral, Gavage/Intubation, dose end: 18 GD
dog [13] = conditions: Chronic toxicity; beagle; Oral; Feed; dose end: 52 week; group: systemic; systemic / clinical chemistry / cholesterol / cholesterol + systemic / clinical chemistry / cytochrome p450, nos / cytochrome p450, nos
mouse [14] = conditions: Carcinogenicity, b6c3f1, Oral, Feed, dose end: 24 month, group: systemic
rat [15] = conditions: Prenatal developmental toxicity study, sprague dawley, Inhalation, Whole-Body, dose end: 15 GD, group: maternal
rat [16] = conditions: Acute inhalation toxicity, fischer, Whole-Body, dose end: 2 week, group: systemic
rat [17] = conditions: Subchronic inhalation toxicity, fischer, Whole-Body, dose end: 14 week, group: systemic
rat [18] = conditions: Prenatal developmental toxicity study, sprague dawley, Inhalation, Whole-Body, dose end: 15 GD, group: maternal; remark: listed apart in the source
dog [19] = conditions: Subchronic oral toxicity in nonrodent, beagle, Feed, dose end: 14 week, group: systemic, systemic / organ weight / liver / absolute + systemic / organ weight / liver / relative to body weight
rat [20] = conditions: Subchronic oral toxicity in rodents, sprague dawley, Feed, dose end: 13 week, group: systemic, systemic / organ weight / uterus / relative to body weight
[21] = systemic / pathology microscopic / kidney / hyaline droplet + systemic / pathology microscopic / kidney / pigmentation
[22] = group: maternal, reproductive / reproductive performance / estrous cycle / abnormal
[23] = group: systemic, systemic / hematology / erythrocyte (rbc) count differential / erythrocyte (rbc) + systemic / hematology / hematocrit (hct) / hematocrit (…
[24] = group: systemic, systemic / pathology microscopic / kidney / nephropathy + systemic / pathology microscopic / spleen / congestion + systemic / pathology …
[25] = systemic / in life observation / body weight / body weight gain
[26] = systemic / organ weight / liver / relative to body weight
[27] = group: offspring, systemic / in life observation / body weight / offspring (pup) weight + systemic / organ weight / brain / absolute + developmental / …
[28] = group: parental, systemic / in life observation / body weight / body weight + systemic / in life observation / clinical signs / drooping eyelids (ptosis) + …
[29] = group: parental, systemic / in life observation / clinical signs / salivation + systemic / organ weight / kidney / relative to body weight + systemic / organ…
[30] = group: reproductive, reproductive / reproductive performance / gestational length / gestational length + reproductive / reproductive performance / implantations…
[31] = group: reproductive, reproductive / reproductive performance / implantations / implantations
[32] = group: offspring, developmental / offspring survival late / viability index / viability index + developmental / developmental landmark / anogenital distance (…
[33] = group: parental, systemic / clinical chemistry / thyroxine (t4) / thyroxine (t4), total + systemic / organ weight / kidney / absolute + systemic / organ …
[34] = group: parental, systemic / organ weight / liver / absolute + systemic / organ weight / liver / relative to body weight + systemic / organ weight / kidney / …
[35] = systemic / pathology microscopic / lung / bronchiolization
[36] = systemic / in life observation / body weight / body weight + reproductive / reproductive performance / mating / mating
[37] = systemic / in life observation / body weight / body weight + reproductive / reproductive performance / mating / mating + systemic / clinical…
[38] = systemic / in life observation / food consumption / food consumption + systemic / organ weight / liver / absolute + systemic / organ weight…
[39] = group: developmental, developmental / developmental malformation / bone / wavy
[40] = group: maternal, systemic / in life observation / body weight / body weight gain
[41] = group: maternal, systemic / in life observation / body weight / body weight gain + systemic / in life observation / food consumption / food consumption
[42] = group: offspring, systemic / in life observation / body weight / offspring (pup) weight
[43] = group: parental, systemic / in life observation / body weight / body weight gain
[44] = systemic / pathology microscopic / thyroid gland / mineralization
[45] = systemic / pathology microscopic / thyroid gland / mineralization + systemic / in life observation / body weight / body weight + systemic / …
[46] = group: developmental, developmental / developmental malformation / bone / absent + developmental / developmental malformation / bone / fused + developmental / …
[47] = group: maternal, systemic / in life observation / body weight / body weight gain + reproductive / reproductive performance / aborted / aborted + reproductive…
[48] = systemic / in life observation / body weight / body weight + systemic / in life observation / body weight / body weight gain + systemic / in…
[49] = systemic / in life observation / body weight / body weight + systemic / in life observation / clinical signs / body temperature + systemic…
[50] = systemic / pathology microscopic / nose / hyperplasia + systemic / pathology microscopic / nose / hypertrophy + systemic / pathology …

SMILES: Cc1ccc([N+](=O)[O-])cc1 [4-Nitrotoluene]
- LEL (rat [1]; [21]): 55 mg/kg/day
- NEL (rat [1]; [21]): < 55 mg/kg/day
- LOAEL (rat [1]; systemic / pathology microscopic / spleen / hematopoietic cell proliferation + systemic / pathology microscopic / spleen / pigmentation): 110 mg/kg/day
- NOAEL (rat [1]; systemic / pathology microscopic / spleen / hematopoietic cell proliferation + systemic / pathology microscopic / spleen / pigmentation + …): 55 mg/kg/day
- LEL (rat [2]; [22]): 680 mg/kg/day
- LOAEL (rat [2]; [22]): > 680 mg/kg/day
- NEL (rat [2]; [22]): 335 mg/kg/day
- NOAEL (rat [2]; [22]): ≥ 680 mg/kg/day
- LOAEL (rat [2]; [23]): 335 mg/kg/day
- NOAEL (rat [2]; [23]): 164 mg/kg/day
- LEL (rat [2]; [24]): 42 mg/kg/day
- NEL (rat [2]; [24]): < 42 mg/kg/day
- LOAEL (mouse [3]; [25]): 813 mg/kg/day
- NOAEL (mouse [3]; systemic / in life observation / body weight / body weight gain + systemic / in life observation / food consumption / food consumption + …): 439 mg/kg/day
- LEL (mouse [3]; [26]): 131 mg/kg/day
- NEL (mouse [3]; [26]): < 131 mg/kg/day
- NEL (rat [4]; group: offspring, systemic / in life observation / body weight / offspring (pup) weight + developmental / offspring survival late / viability index / …): 40 mg/kg/day
- LEL (rat [4]; group: offspring, systemic / in life observation / body weight / offspring (pup) weight + systemic / organ weight / brain / absolute): 80 mg/kg/day
- LOAEL (rat [4]; [27]): > 160 mg/kg/day
- NOAEL (rat [4]; [27]): ≥ 160 mg/kg/day
- LOAEL (rat [4]; [28]): > 160 mg/kg/day
- NOAEL (rat [4]; [28]): ≥ 160 mg/kg/day
- LEL (rat [4]; [29]): 40 mg/kg/day
- NEL (rat [4]; [29]): < 40 mg/kg/day
- LOAEL (rat [4]; [30]): > 160 mg/kg/day
- NOAEL (rat [4]; [30]): ≥ 160 mg/kg/day
- LEL (rat [4]; [31]): 40 mg/kg/day
- NEL (rat [4]; [31]): < 40 mg/kg/day
- LOAEL (rat [5]; [32]): 160 mg/kg/day
- NEL (rat [5]; [32]): 40 mg/kg/day
- NOAEL (rat [5]; group: offspring, developmental / offspring survival late / viability index / viability index + systemic / organ weight / brain / absolute): 80 mg/kg/day
- LEL (rat [5]; group: offspring, systemic / organ weight / brain / absolute): 80 mg/kg/day
- LOAEL (rat [5]; [33]): > 160 mg/kg/day
- NOAEL (rat [5]; [33]): ≥ 160 mg/kg/day
- LEL (rat [5]; [34]): 40 mg/kg/day
- NEL (rat [5]; [34]): < 40 mg/kg/day
- LOAEL (mouse [6]; systemic / in life observation / body weight / body weight): 345 mg/kg/day
- NOAEL (mouse [6]; systemic / in life observation / body weight / body weight + systemic / pathology microscopic / lung / adenoma/carcinoma combined + systemic…): 170 mg/kg/day
- LEL (mouse [6]; [35]): 155 mg/kg/day
- NEL (mouse [6]; [35]): < 155 mg/kg/day

SMILES: ClC1=C(Cl)C2(Cl)C3C(Cl)C(Cl)CC3C1(Cl)C2(Cl)Cl (configuration not stated) [Chlordane, technical grade]
- LEL (rat [7]; [36]): 0.1 mg/kg/day
- NEL (rat [7]; [36]): < 0.1 mg/kg/day
- LOAEL (rat [7]; [37]): > 5 mg/kg/day
- NOAEL (rat [7]; [37]): ≥ 5 mg/kg/day
- LEL (rat [8]): 0.045 mg/kg/day
- LOAEL (rat [8]): 0.045 mg/kg/day
- NEL (rat [8]): < 0.045 mg/kg/day
- NOAEL (rat [8]): < 0.045 mg/kg/day
- LEL (mouse [9]; [38]): 0.15 mg/kg/day
- NEL (mouse [9]; [38]): < 0.15 mg/kg/day
- NOAEL (mouse [9]; systemic / pathology microscopic / liver / degeneration + systemic / in life observation / food consumption / food consumption + systemic / …): 0.15 mg/kg/day
- LOAEL (mouse [9]; systemic / pathology microscopic / liver / degeneration + systemic / pathology microscopic / liver / necrosis): 0.75 mg/kg/day

SMILES: O=[N+]([O-])/N=C1\NCCN1Cc1ccc(Cl)nc1 [Imidacloprid]
- LEL (rat [10]; [39]): 100 mg/kg/day
- LOAEL (rat [10]; [39]): 100 mg/kg/day
- NEL (rat [10]; [39]): 30 mg/kg/day
- NOAEL (rat [10]; [39]): 30 mg/kg/day
- LEL (rat [10]; [40]): 30 mg/kg/day
- LOAEL (rat [10]; [40]): 30 mg/kg/day
- NEL (rat [10]; [41]): 10 mg/kg/day
- NOAEL (rat [10]; [41]): 10 mg/kg/day
- LEL (rat [11]; [42]): 47.3 mg/kg/day
- LOAEL (rat [11]; [42]): 47.3 mg/kg/day
- NEL (rat [11]; [42]): 16.5 mg/kg/day
- NOAEL (rat [11]; [42]): 16.5 mg/kg/day
- LEL (rat [11]; [43]): 52.3 mg/kg/day
- LOAEL (rat [11]; [43]): 52.3 mg/kg/day
- NEL (rat [11]; [43]): 18.9 mg/kg/day
- NOAEL (rat [11]; [43]): 18.9 mg/kg/day
- LEL (rat [12]; [44]): 16.9 mg/kg/day
- LOAEL (rat [12]; [44]): 16.9 mg/kg/day
- NEL (rat [12]; [45]): 5.7 mg/kg/day
- NOAEL (rat [12]; [45]): 5.7 mg/kg/day
- LEL (rabbit; [46]): 72 mg/kg/day
- LOAEL (rabbit; [46]): 72 mg/kg/day
- NEL (rabbit; [46]): 24 mg/kg/day
- NOAEL (rabbit; [46]): 24 mg/kg/day
- LEL (rabbit; [40]): 24 mg/kg/day
- NEL (rabbit; [47]): 8 mg/kg/day
- NOAEL (rabbit; [47]): 24 mg/kg/day
- LOAEL (rabbit; group: maternal, systemic / in life observation / body weight / body weight gain + reproductive / reproductive performance / postimplantation loss / …): 72 mg/kg/day
- LEL (dog [13]): 72 mg/kg/day
- LOAEL (dog [13]): > 72 mg/kg/day
- NEL (dog [13]): 15 mg/kg/day
- NOAEL (dog [13]): ≥ 72 mg/kg/day
- LOAEL (mouse [14]; [48]): 414 mg/kg/day
- NEL (mouse [14]; [48]): 66 mg/kg/day
- NOAEL (mouse [14]; [48]): 208 mg/kg/day
- LEL (mouse [14]; [25]): 208 mg/kg/day

SMILES: CCN(CC)CCO [N,N-Diethylethanolamine]
- LOAEL (rat [15]; [48]): > 200 ppm
- NEL (rat [15]; [48]): 10 ppm
- NOAEL (rat [15]; [48]): ≥ 200 ppm
- LEL (rat [15]; [25]): 50 ppm
- LOAEL (rat [16]; [49]): > 300 ppm
- NEL (rat [16]; [49]): 10 ppm
- NOAEL (rat [16]; [49]): ≥ 300 ppm
- LEL (rat [16]; systemic / pathology microscopic / nose / infiltration cellular + systemic / pathology microscopic / nose / metaplasia): 55 ppm
- NEL (rat [17]; [50]): 10 ppm
- NOAEL (rat [17]; [50]): 10 ppm
- LOAEL (rat [17]; systemic / pathology microscopic / nose / hyperplasia + systemic / pathology microscopic / nose / infiltration cellular): 25 ppm
- LEL (rat [17]; systemic / pathology microscopic / nose / hyperplasia + systemic / pathology microscopic / nose / infiltration cellular + systemic / …): 25 ppm
- LOAEL (rat [18]; [48]): > 100 ppm
- NEL (rat [18]; [48]): 33 ppm
- NOAEL (rat [18]; [48]): ≥ 100 ppm
- LEL (rat [18]; systemic / in life observation / body weight / body weight gain + systemic / in life observation / food consumption / food consumption): 66 ppm

SMILES: CCN(CC)C(=O)C(C)Oc1cccc2ccccc12 (configuration not stated) [Napropamide]
- LEL (dog [19]): 100 mg/kg/day
- LOAEL (dog [19]): 100 mg/kg/day
- NEL (dog [19]): 40 mg/kg/day
- NOAEL (dog [19]): 40 mg/kg/day
- LEL (rat [20]): 50 mg/kg/day
- LOAEL (rat [20]): 50 mg/kg/day
- NEL (rat [20]): 25 mg/kg/day
- NOAEL (rat [20]): 25 mg/kg/day
